Broadly, the IC50 is the concentration needed to halve the response being measured.

Each structure is given as a SMILES string. Activity calls are given as the source filed them. The rule behind the calls is not given here.

From ChEMBL document CHEMBL3868621, “A novel adamantane thiadiazole derivative induces mitochondria-mediated apoptosis in lung carcinoma cell line” (Bioorg Med Chem, 2017) come the findings set out here.

Data set [1] is described as follows: Cytotoxicity against human PC3 cells assessed as decrease in cell viability after 24 hrs by MTT assay. The format is functional, cell-based. Particulars: PC-3, 24 h.
Data set [2] can be described thus: Cytotoxicity against human HCT116 cells assessed as decrease in cell viability after 24 hrs by MTT assay. Format: functional, cell-based. As to conditions: HCT-116, 24 h. On the technique in general: Tetrazolium dyes change colour on reduction, which living cells bring about.
Data set [3] is described as follows: Cytotoxicity against human A549 cells assessed as decrease in cell viability after 24 hrs by MTT assay. Particulars: A549, 24 h. Format: functional, cell-based.
Data set [4] in a line: Cytotoxicity against HFB4 cells assessed as decrease in cell viability after 24 hrs by MTT assay. The format is toxicity, cell-based. Particulars: human.
Data set [5] can be described thus: Cell cycle arrest in human A549 cells assessed as accumulation at G0/G1 phase at 0.087 mM after 24 hrs by propidium iodide staining based flow cytometry (reference value: 33.96%). The format is functional. (A flow cytometer gives signals particle by particle.)
The nature of data set [6]: Cell cycle arrest in human A549 cells assessed as accumulation at S phase at 0.087 mM after 24 hrs by propidium iodide staining based flow cytometry (reference value: 34.42%). The format is functional.
The nature of data set [7]: Cell cycle arrest in human A549 cells assessed as accumulation at G2/M phase at 0.087 mM after 24 hrs by propidium iodide staining based flow cytometry (reference value: 26.63%). Format: functional.
Data set [8] concerns A549. Kind of data set: Induction of apoptosis in human A549 cells assessed as viable cells at 0.087 mM after 24 hrs by annexin V/propidium iodide double staining based flow cytometry (reference value: 98.85%). Format: functional. Particulars: A549, 24 h, read-out: Activity.
Data set [9] relates to A549. The experiment in a line: Induction of apoptosis in human A549 cells assessed as early apoptotic cells at 0.087 mM after 24 hrs by annexin V/propidium iodide double staining based flow cytometry (reference value: 0.91%). Format: functional.
Data set [10] deals with A549. The experiment in a line: Induction of apoptosis in human A549 cells assessed as late apoptotic cells at 0.087 mM after 24 hrs by annexin V/propidium iodide double staining based flow cytometry (reference value: 0.21%). The format is functional.
Data set [11] concerns A549. The experiment in a line: Induction of apoptosis in human A549 cells assessed as necrotic cells at 0.087 mM after 24 hrs by annexin V/propidium iodide double staining based flow cytometry (reference value: 0.02%). Format: functional.
The subject of data set [12] is A549. Kind of data set: Induction of apoptosis in human A549 cells assessed as viable cells at 0.17 mM after 48 hrs by annexin V/propidium iodide double staining based flow cytometry (reference value: 98.6%). The format is functional. Particulars: A549, 48 h, read-out: Activity.
Data set [13] concerns A549. The experiment in a line: Induction of apoptosis in human A549 cells assessed as early apoptotic cells at 0.17 mM after 48 hrs by annexin V/propidium iodide double staining based flow cytometry (reference value: 1.27%). Format: functional.
Data set [14] deals with A549. The experiment in a line: Induction of apoptosis in human A549 cells assessed as late apoptotic cells at 0.17 mM after 48 hrs by annexin V/propidium iodide double staining based flow cytometry (reference value: 0.08%). The format is functional.
The test system of data set [15] is A549. Kind of data set: Induction of apoptosis in human A549 cells assessed as necrotic cells at 0.17 mM after 48 hrs by annexin V/propidium iodide double staining based flow cytometry (reference value: 0%). The format is functional.
In data set [16] the test system is A549. The experiment in a line: Induction of apoptosis in human A549 cells after 24 to 48 hrs by annexin V/propidium iodide double staining based flow cytometry. The format is functional, cell-based.
Data set [17] has as its system A549. Kind of data set: Induction of apoptosis in human A549 cells at 0.087 to 0.17 mM by annexin V/propidium iodide double staining based flow cytometry. Particulars: TDE = time-dependent effect. The format is functional, cell-based.
Data set [18] concerns A549. Kind of data set: Induction of apoptosis in human A549 cells assessed as increase in caspase-3 activity at 0.17 mM using Ac-DEVD-pNA as substrate after 48 hrs by colorimetric assay (reference value: 0.005). The format is functional.
Data set [19] concerns A549. Kind of data set: Effect on p53 expression in human A549 cells assessed as ratio of p53 to beta-actin mRNA level at 0.17 mM by qRT-PCR analysis (reference value: 10.87). The format is functional. For orientation: In qPCR the cycle at which signal appears reflects the starting amount.
The subject of data set [20] is A549. Kind of data set: Effect on caspase-3 expression in human A549 cells assessed as ratio of caspase-3 to beta-actin mRNA level at 0.17 mM by qRT-PCR analysis (reference value: 6.398). Format: functional.
In data set [21] the test system is A549. The experiment in a line: Effect on Bcl2 expression in human A549 cells assessed as ratio of Bcl-2 to beta-actin mRNA level at 0.17 mM by qRT-PCR analysis (reference value: 15.0312). The format is functional.
For data set [22], the system named is A549. The experiment in a line: Effect on Bax expression in human A549 cells assessed as ratio of Bax to beta-actin mRNA level at 0.17 mM by qRT-PCR analysis (reference value: 9.0641). The format is functional.
Data set [23] concerns A549. The experiment in a line: Induction of morphological changes in human A549 cells assessed as small membrane protrusions on cell surface at 0.087 mM after 24 hrs by atomic force microscopic imaging analysis. The format is functional, cell-based.
The subject of data set [24] is A549. The experiment in a line: Induction of morphological changes in human A549 cells assessed as larger uplifted particles on cell surface at 0.087 mM after 24 hrs by atomic force microscopic imaging analysis. The format is functional, cell-based.
The subject of data set [25] is A549. The experiment in a line: Induction of morphological changes in human A549 cells assessed as large uplifted structures on cell surface by measuring particle length at 0.087 mM after 24 hrs by atomic force microscopic imaging analysis (reference value: 0.161 micrometer). Format: functional.
In data set [26] the test system is A549. Kind of data set: Induction of morphological changes in human A549 cells assessed as large uplifted structures on cell surface by measuring average particle height at 0.087 mM after 24 hrs by atomic force microscopic imaging analysis (reference value: 0.144 micrometer). The format is functional.
The subject of data set [27] is A549. The experiment in a line: Induction of morphological changes in human A549 cells assessed as large uplifted structures on cell surface by measuring particle width at 0.087 mM after 24 hrs by atomic force microscopic imaging analysis (reference value: 0.147 micrometer). Format: functional.
Data set [28] concerns A549. Kind of data set: Induction of morphological changes in human A549 cells assessed as cell surface damage by measuring average roughness value at 0.087 mM after 24 hrs by atomic force microscopic imaging analysis (reference value: 1.11 micrometer). The format is functional.
For data set [29], the system named is A549. The experiment in a line: Induction of morphological changes in human A549 cells assessed as cell shrinkage at 0.17 mM after 72 hrs by uranyl acetate/lead citrate staining based transmission electron microscopic imaging analysis. Format: functional.
The subject of data set [30] is A549. The experiment in a line: Induction of morphological changes in human A549 cells assessed as increased cellular granularity at 0.17 mM after 72 hrs by uranyl acetate/lead citrate staining based transmission electron microscopic imaging analysis. The format is functional, cell-based.
For data set [31], the system named is A549. The experiment in a line: Induction of morphological changes in human A549 cells assessed as change in mitochondrial number at 0.17 mM after 72 hrs by uranyl acetate/lead citrate staining based transmission electron microscopic imaging analysis. The format is functional, cell-based.
The test system of data set [32] is A549. The experiment in a line: Induction of morphological changes in human A549 cells assessed as change in mitochondrial morphology at 0.17 mM after 72 hrs by uranyl acetate/lead citrate staining based transmission electron microscopic imaging analysis. The format is functional, cell-based.
The subject of data set [33] is A549. Kind of data set: Induction of morphological changes in human A549 cells assessed as nuclear chromatin condensation and margination at 0.17 mM after 72 hrs by uranyl acetate/lead citrate staining based transmission electron microscopic imaging analysis. The format is functional, cell-based.
Data set [34] deals with A549. The experiment in a line: Induction of morphological changes in human A549 cells assessed as formation of membrane blebs at 0.17 mM after 72 hrs by uranyl acetate/lead citrate staining based transmission electron microscopic imaging analysis. Format: functional, cell-based.
Data set [35] relates to A549. Kind of data set: Induction of morphological changes in human A549 cells assessed as formation of apoptotic bodies at 0.17 mM after 72 hrs by uranyl acetate/lead citrate staining based transmission electron microscopic imaging analysis. The format is functional, cell-based.
The test system of data set [36] is A549. Kind of data set: Induction of morphological changes in human A549 cells assessed as reduction in nucleus volume at 0.17 mM after 72 hrs by uranyl acetate/lead citrate staining based transmission electron microscopic imaging analysis. Format: functional, cell-based.

In the case of `O=C(Nc1ccccc1)c1nn(-c2ccccc2)/c(=N/NC(=O)C23CC4CC(CC(C4)C2)C3)s1`, the figures for the concentration for half-maximal inhibition (IC50) in [1], in data set [2] and in [3] were 163 µM, 168 µM and 87 µM, respectively. Also, the 50% inhibitory concentration (IC50) at 24 h in [4] was 218 µM. Also, the Activity in data set [5] came to 29.2%; in data set [6], 68.9%; in data set [7], 1.97%; in the data set on A549 [9], 10.36%; with A549 [10] it was 0.61%; in the data set on A549 [11] it was 0%. The Activity is 16.2% with A549 [13]; 0.18% in the data set with A549 [14]; 0% in the data set on A549 [15]; “Dose-dependent effect” in the data set on A549 [16]; “Tde” in the data set with A549 [17]; 0.142 um in the data set on A549 [25]. In addition, the values for the Activity in the data set with A549 [26], in the data set with A549 [27] and with A549 [28] were 0.161 um, 0.134 um and 1.29 um, respectively. Besides, the viability at 87 µM in the data set with A549 [8] was found to be 89%. In addition, the viability at 170 µM in the data set on A549 [12] was found to be 83.6%. The OD in the data set on A549 [18] is recorded as 0.021. In addition, the Ratio in the data set on A549 [19] is reported as 13.73; in the data set with A549 [20], 12.327; with A549 [21], 8.323; in the data set with A549 [22], 18.781. Besides, the outcome with A549 [23], with A549 [24], in the data set with A549 [29], with A549 [30], in the data set on A549 [31] and in the data set on A549 [32] was Active. Moreover, the result in the data set with A549 [33], in the data set on A549 [34], in the data set with A549 [35] and in the data set on A549 [36] was Active.
In the case of `O=c1[nH]cc(F)c(=O)[nH]1` [FLUOROURACIL], the IC50 in data set [1] was found to be 1200 µM; in data set [2], 2000 µM; in data set [3] it was 2900 µM. In addition, the IC50 at 24 h in data set [4] is greater than 5000 µM.
